Species: Rattus norvegicus
Test: Open TG-GATES - Regimen: Daily Repeat
Type: toxicity, organism-based, Sprague-Dawley
Design: regimen Daily Repeat, gender Male, age 6 weeks
Details: in vivo, po, route gavage; for TC / TG / TP / gamma-GTP / A/G / ALP / ALT / AST / BUN / CRE / Ca / Cl / GLC / IP / K / LDH / Na / PL / RALB: tissue Plasma; for APTT / Bas / Eos / Fbg / Hb / Ht / Lym / MCH / MCHC / MCV / Mono / Neu / PT / Plat / RBC / Ret / WBC: tissue Blood; for KIDNEY_L / KIDNEY_R / KIDNEY_TOTAL: tissue Kidney; for LIVER: tissue Liver
[1] = 100 mg/kg, […], dose level Low, time 28 day
[2] = 300 mg/kg, 72 h, dose level Middle, time 3 day
[3] = 300 mg/kg, […], dose level Middle, time 7 day
[4] = 300 mg/kg, […], dose level Middle, time 14 day
[5] = 300 mg/kg, […], dose level Middle, time 28 day

Work on `O=C(O)c1ccccc1Nc1ccccc1` [FENAMIC ACID] yielded a TC [1] of 76.6 mg/dL, a TG [1] of 129.6 mg/dL and a TP [1] of 6.2 g/dL. For the same compound, the gamma-GTP [1] was 1 IU/L, the TERMINAL_BW [2] was 241.8 g and the APTT [2] was 15.8 s. It also gave a Bas [2] of 0.4%, an Eos [2] of 1% and a Fbg [2] of 293.6 mg/dL. For the same compound, the Hb [2] was 13.4 g/dL, the Ht [2] was 40.1% and the Lym [2] was 74.2%. For the same compound, the MCH [2] was 20.9 pg, the MCHC [2] was 33.4% and the MCV [2] was 62.8 fL. For the same compound, the Mono [2] was 2.8%, the Neu [2] was 21.8% and the PT [2] was 14 s. For the same compound, the Plat [2] was 137.1 x10_4/uL, the RBC [2] was 639.6 x10_4/ul and the Ret [2] was 6.8%. The WBC [2] was 91.3 x10_2/uL, the KIDNEY_L [2] was 1 g and the KIDNEY_R [2] was 1 g. It also gave a KIDNEY_TOTAL [2] of 1.9 g, an LIVER [2] of 12 g and an A/G [2] of 0.9. The ALP [2] was 1538.8 IU/L, the ALT [2] was 37.4 IU/L and the AST [2] was 64.8 IU/L. It also gave a BUN [2] of 14.2 mg/dL, a CRE [2] of 0.2 mg/dL and a Ca [2] of 11.6 mg/dL. It also gave a Cl [2] of 105.8 meq/L, a GLC [2] of 183 mg/dL and an IP [2] of 6.4 mg/dL. It also gave a K [2] of 4.3 meq/L, an LDH [2] of 119.8 IU/L and a Na [2] of 142.8 meq/L. For the same compound, the PL [2] was 156 mg/dL, the RALB [2] was 2.7 g/dL and the TC [2] was 82.4 mg/dL. The TG [2] was 99.4 mg/dL, the TP [2] was 5.7 g/dL and the gamma-GTP [2] was 1.6 IU/L. For the same compound, the TERMINAL_BW [3] was 275.7 g, the TERMINAL_BW [4] was 344.9 g and the TERMINAL_BW [5] was 435 g. For the same compound, the APTT [3] was 16.6 s, the Bas [3] was 0.6% and the Eos [3] was 1.2%. The Fbg [3] was 313 mg/dL, the Hb [3] was 13.6 g/dL and the Ht [3] was 40.4%. The Lym [3] was 80.6%, the MCH [3] was 20.8 pg and the MCHC [3] was 33.7%. It also gave an MCV [3] of 61.5 fL, a Mono [3] of 2.4% and a Neu [3] of 15.2%. It also gave a PT [3] of 13.9 s, a Plat [3] of 137.6 x10_4/uL and an RBC [3] of 656.8 x10_4/ul. The Ret [3] was 6.2%, the WBC [3] was 89.7 x10_2/uL and the APTT [4] was 15.8 s. For the same compound, the Bas [4] was 0.8%, the Eos [4] was 0.8% and the Fbg [4] was 296 mg/dL. The Hb [4] was 14.4 g/dL, the Ht [4] was 42.2% and the Lym [4] was 79.8%. For the same compound, the MCH [4] was 20.1 pg, the MCHC [4] was 34.2% and the MCV [4] was 58.6 fL. For the same compound, the Mono [4] was 2.2%, the Neu [4] was 16.4% and the PT [4] was 13.8 s. The Plat [4] was 131.5 x10_4/uL, the RBC [4] was 719.6 x10_4/ul and the Ret [4] was 4.7%. It also gave a WBC [4] of 104.7 x10_2/uL, an APTT [5] of 17.6 s and a Bas [5] of 0.4%. The Eos [5] was 1.4%, the Fbg [5] was 314.2 mg/dL and the Hb [5] was 14.8 g/dL. The Ht [5] was 42.7%, the Lym [5] was 79.8% and the MCH [5] was 18.8 pg. It also gave an MCHC [5] of 34.7%, an MCV [5] of 54.1 fL and a Mono [5] of 2.6%. For the same compound, the Neu [5] was 15.8%, the PT [5] was 14.1 s and the Plat [5] was 119.3 x10_4/uL. For the same compound, the RBC [5] was 789.8 x10_4/ul, the Ret [5] was 2.7% and the WBC [5] was 92.3 x10_2/uL. The KIDNEY_L [3] was 1.3 g, the KIDNEY_R [3] was 1.2 g and the KIDNEY_TOTAL [3] was 2.5 g. The KIDNEY_L [4] was 1.4 g, the KIDNEY_R [4] was 1.4 g and the KIDNEY_TOTAL [4] was 2.7 g. It also gave a KIDNEY_L [5] of 1.5 g, a KIDNEY_R [5] of 1.5 g and a KIDNEY_TOTAL [5] of 3 g. It also gave an LIVER [3] of 13.4 g, an LIVER [4] of 16.2 g and an LIVER [5] of 19 g. The A/G [3] was 0.9, the ALP [3] was 1312 IU/L and the ALT [3] was 36.6 IU/L. For the same compound, the AST [3] was 63.4 IU/L, the BUN [3] was 26.8 mg/dL and the CRE [3] was 0.3 mg/dL. It also gave a Ca [3] of 11.8 mg/dL, a Cl [3] of 103.8 meq/L and a GLC [3] of 185 mg/dL. The IP [3] was 7 mg/dL, the K [3] was 4.6 meq/L and the LDH [3] was 108 IU/L. It also gave a Na [3] of 143.6 meq/L, a PL [3] of 150.4 mg/dL and an RALB [3] of 2.8 g/dL. The TC [3] was 80.8 mg/dL, the TG [3] was 91.6 mg/dL and the TP [3] was 6 g/dL. For the same compound, the gamma-GTP [3] was 1.6 IU/L, the A/G [4] was 0.8 and the ALP [4] was 1463.6 IU/L. The ALT [4] was 36.8 IU/L, the AST [4] was 58.4 IU/L and the BUN [4] was 15.8 mg/dL. For the same compound, the CRE [4] was 0.3 mg/dL, the Ca [4] was 11.3 mg/dL and the Cl [4] was 104 meq/L. The GLC [4] was 178 mg/dL, the IP [4] was 6.5 mg/dL and the K [4] was 4 meq/L. It also gave an LDH [4] of 102.2 IU/L, a Na [4] of 144.2 meq/L and a PL [4] of 160.8 mg/dL. The RALB [4] was 2.8 g/dL, the TC [4] was 80.8 mg/dL and the TG [4] was 117.2 mg/dL. For the same compound, the TP [4] was 6.2 g/dL, the gamma-GTP [4] was 1.2 IU/L and the A/G [5] was 0.8. For the same compound, the ALP [5] was 942.2 IU/L, the ALT [5] was 31 IU/L and the AST [5] was 53.2 IU/L. The BUN [5] was 15.6 mg/dL, the CRE [5] was 0.3 mg/dL and the Ca [5] was 11.3 mg/dL. It also gave a Cl [5] of 103.8 meq/L, a GLC [5] of 186.6 mg/dL and an IP [5] of 6.7 mg/dL. The K [5] was 4 meq/L, the LDH [5] was 107.6 IU/L and the Na [5] was 144.6 meq/L. For the same compound, the PL [5] was 161.8 mg/dL, the RALB [5] was 2.9 g/dL and the TC [5] was 82.2 mg/dL. It also gave a TG [5] of 100.8 mg/dL.

— ChEMBL document CHEMBL3885861, “Open TG-GATES”
